This is an account of results in paper PMC10180155, “Thieno-Thiazolostilbenes, Thienobenzo-Thiazoles, and Naphtho-Oxazoles: Computational Study and Cholinesterase Inhibitory Activity” (Molecules, 2023).

One may read the inhibition as the percentage by which the read-out fell short of the control. What is called IC50 is the concentration that gives 50% inhibition.

The target of series [1] is T1, BChE (EC 3.1.1.8, equine serum) (Equus caballus, UniProt P81908).
T1 construct: BChE (EC 3.1.1.8, equine serum); purchased Sigma-Aldrich; host or cells: equine serum
T1 sequence (P81908 whole entry): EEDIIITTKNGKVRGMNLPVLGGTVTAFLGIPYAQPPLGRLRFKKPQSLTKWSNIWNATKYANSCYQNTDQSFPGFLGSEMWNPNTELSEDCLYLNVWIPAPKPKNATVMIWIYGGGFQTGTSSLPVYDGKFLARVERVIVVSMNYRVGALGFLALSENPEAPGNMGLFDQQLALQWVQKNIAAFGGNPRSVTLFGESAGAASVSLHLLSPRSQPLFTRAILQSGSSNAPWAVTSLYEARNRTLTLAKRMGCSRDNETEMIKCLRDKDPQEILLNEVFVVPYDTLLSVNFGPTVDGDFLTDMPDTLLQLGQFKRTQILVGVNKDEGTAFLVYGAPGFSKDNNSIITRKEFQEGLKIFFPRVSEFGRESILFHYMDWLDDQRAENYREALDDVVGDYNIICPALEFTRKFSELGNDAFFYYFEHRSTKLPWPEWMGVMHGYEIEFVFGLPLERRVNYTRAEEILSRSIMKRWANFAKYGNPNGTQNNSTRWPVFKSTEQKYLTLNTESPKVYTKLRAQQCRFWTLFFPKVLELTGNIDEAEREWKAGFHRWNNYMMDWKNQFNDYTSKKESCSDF
Briefly: biochemical. The series is classed as biochemical. The following applies: for Inhibition (%) BChE: concentration for the maximal effect measured. How it is done:
(§1) AChE and BChE inhibition were determined using a modified spectrophotometric Ellman’s method. Acetylthiocholine iodide (ATChI), S-butyrylthiocholine iodide (BTChI), AChE (EC 3.1.1.7, Electrophorus electricus, Type: V-S), BChE (EC 3.1.1.8, equine serum), and Trisma base were purchased from Sigma-Aldrich (St. Louis, MO, USA), while Ellman’s reagent 5,50-dithiobis-(2-nitrobenzoic acid) (DTNB) was purchased from Zwijndrecht (Antwerpen, Belgium). The reaction mixture contained 180 µL Tris-HCl buffer (50 mM, pH 8.0) or phosphate buffer, 10 µL of the enzyme (final concentration 0.03 U/mL), 10 µL of the tested solution, and 10 μL of DTNB (final concentration 0.3 mM). The reaction started with adding 10 μL of ATChI/BTChI (final concentration of 0.5 mM). The developing yellow color was measured at 405 nm over 6 min at room temperature using a 96-well microplate reader (IRE 96, SFRI Medical Diagnostics, Bordeaux, France). The experiment was run in triplicate. The percentage of enzyme inhibition was calculated from measured data according to the equation: Inhibition (%) = [(Ac − AT)/A.C.]∙100, where A.C. is the enzyme activity without the test sample, and AT is the enzyme activity with the test sample, calculated as mean values ± standard deviation. In the control measurement, the tested compound was replaced by a buffer solution. Non-enzymatic hydrolysis was measured as blank for each measurement. The IC50 value was calculated by a nonlinear fit of compound concentration (log) values vs. response.

Series [2] deals with T2, AChE (EC 3.1.1.7, Electrophorus electricus, Type: V-S) (Electrophorus electricus, UniProt O42275).
T2 construct: purchased Sigma-Aldrich Type: V-S
T2 sequence (O42275 24-633): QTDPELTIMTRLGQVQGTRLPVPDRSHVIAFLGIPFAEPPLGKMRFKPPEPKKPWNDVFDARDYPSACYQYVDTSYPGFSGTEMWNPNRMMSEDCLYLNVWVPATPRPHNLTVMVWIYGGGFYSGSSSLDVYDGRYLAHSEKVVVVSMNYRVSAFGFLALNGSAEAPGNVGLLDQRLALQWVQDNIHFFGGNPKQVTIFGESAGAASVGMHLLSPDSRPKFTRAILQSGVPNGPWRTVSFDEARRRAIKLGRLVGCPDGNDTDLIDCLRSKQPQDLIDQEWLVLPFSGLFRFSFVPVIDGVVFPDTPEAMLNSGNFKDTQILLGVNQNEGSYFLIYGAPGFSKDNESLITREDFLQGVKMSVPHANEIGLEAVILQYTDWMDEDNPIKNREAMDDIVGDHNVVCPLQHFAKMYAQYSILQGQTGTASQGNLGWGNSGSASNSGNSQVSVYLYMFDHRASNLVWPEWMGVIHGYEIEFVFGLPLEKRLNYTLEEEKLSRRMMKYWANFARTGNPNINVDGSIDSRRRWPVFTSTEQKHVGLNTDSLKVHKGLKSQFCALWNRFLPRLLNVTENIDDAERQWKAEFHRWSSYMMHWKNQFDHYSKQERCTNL
The experiment in a line: AChE inhibition, modified spectrophotometric Ellman's method. The series is classed as biochemical. The protocol:
as §1, with “The experiment was run in triplicate.” left out, “In the control measurement, the tested compound was replaced by a buffer solution.” left out
A general note: Ellman's reagent forms a yellow product with free thiols.

Series [3] can be described thus: Solubility as observed in the cholinesterase measurements. Format: physicochemical. The following applies: did not allow measurements at higher concentrations. An excerpt: Tested compounds were active only toward BChE, and the results are presented in Table 2 and Figure 8 and Figure 9. Among stilbene derivatives, the best result is achieved by the derivative with a phenolic ring trans-8a and the thiophene derivative trans-1a (Table 2, Figure 9). […] Replacement of phenol from trans-8a with thiophene in trans-1a reduces the IC50 value by seven times. Replacing the methyl group from trans-1a with an isopropyl group in trans-2a (along with the inversion of the sulfur and nitrogen position) also reduces the activity. Furthermore, a change in geometry from trans-1a to cis-1a also diminished inhibitory activity, as was observed earlier.

Consider `CC(=O)Nc1ncc(C=Cc2cccs2)s1` (mixture of isomers) [Compound 5a, N-(5-(2-(thiophen-2-yl)vinyl)thiazol-2-yl)acetamide], for which the “inhibitory activity toward BChE (in words)” value in series [1] is on record as “ineffective inhibitors”. Besides, in series [1] (read-out: Inhibition (%) BChE), the inhibition at 250 µM turned out to be 30.6%.
On to `Cc1nc2c(ccc3sccc32)s1` [Compound 1, 2-methylthieno[2′,3′:5,6]benzo[1,2-d]thiazole], for which the IC50 in series [1] was 107 µM. For the same compound, the inhibition at 500 µM in series [1] (read-out: Inhibition (%) BChE) stood at 79.1%.
`CC(C)c1nc2ccc3sccc3c2s1` [Compound 2, 2-isopropylthieno[3′,2′:3,4]benzo[1,2-d]thiazole]: the inhibition at 200 µM in series [1] (read-out: Inhibition (%) BChE) stood at 46.8%.
With `Clc1nc2c(ccc3sccc32)s1` [Compound 3, 2-chlorothieno[2′,3′:5,6]benzo[1,2-d]thiazole], it took 51.1 µM to reach half-maximal inhibition in series [1] (IC50). Also, the inhibition at 250 µM in series [1] (read-out: Inhibition (%) BChE) came to 75.4%.
Consider `FC(F)(F)c1nc2c(ccc3sccc32)s1` [Compound 4, 2-(trifluoromethyl)thieno[2′,3′:5,6]benzo[1,2-d]thiazole], for which, in series [1], the IC50 was 41.9 µM. Moreover, the inhibition at 200 µM in series [1] (read-out: Inhibition (%) BChE) was 70.8%.
Consider `CC(=O)Nc1nc2c(ccc3sccc32)s1` [Compound 5, N-(thieno[2′,3′:5,6]benzo[1,2-d]thiazol-2-yl)acetamide], for which, in series [1] (read-out: Inhibition (%) BChE), the inhibition at 250 µM came to 24.9%.
Regarding `c1ccc2c(c1)ccc1ncoc12` [Compound 11], in series [1] (read-out: Inhibition (%) BChE), the inhibition at 188 µM is 0.9%.
Regarding `N#Cc1cccc2c1ccc1ncoc12` [Compound 12], in series [1] (read-out: Inhibition (%) BChE), the inhibition at 176 µM is 40.9%.
Consider `Cc1cccc2c1ccc1ncoc12` [Compound 13], for which the IC50 in series [1] is 351 µM. The inhibition at 396.8 µM in series [1] (read-out: Inhibition (%) BChE) was determined as 57.8%.
In turn, `Cc1ccc2ccc3ncoc3c2c1` [Compound 14] showed an IC50 in series [1] of 155 µM. Further, the inhibition at 173.6 µM in series [1] (read-out: Inhibition (%) BChE) is 63.3%.
Compound `Cc1ccc2ccc3nc(C)oc3c2c1` [Compound 15] gave an IC50 in series [1] of 44.4 µM. In addition, the inhibition at 368.6 µM in series [1] (read-out: Inhibition (%) BChE) stood at 98.3%.
Turning to `O=[N+]([O-])c1ccc2ccc3ncoc3c2c1` [Compound 16], the results for the IC50 in series [1] and in series [2] were 137 µM and 131 µM, respectively. The inhibition at 201.7 µM in series [1] (read-out: Inhibition (%) BChE) amounted to 64.9%; in series [2] (read-out: % of inhibition AChE), 63.8%.
For the compound `Cc1nc2ccc3ccc([N+](=O)[O-])cc3c2o1` [Compound 17], in series [1] (read-out: Inhibition (%) BChE), the inhibition at 159.5 µM was 16.8%.
Regarding `COc1ccc2ccc3ncoc3c2c1` [Compound 18], the inhibition at 273.6 µM in series [1] (read-out: Inhibition (%) BChE) came out at 38%.
In turn, `COc1ccc2ccc3nc(C)oc3c2c1` [Compound 19] yielded an IC50 in series [1] of 170 µM. Also, the inhibition at 405.2 µM in series [1] (read-out: Inhibition (%) BChE) was 81.9%.
`CN(C)c1ccc2ccc3ocnc3c2c1` [Compound 20] showed an IC50 in series [1] of 184 µM. The inhibition at 364.2 µM in series [1] (read-out: Inhibition (%) BChE) is 82.2%.
As for `Clc1ccc2ccc3ocnc3c2c1` [Compound 21], the inhibition at 312.3 µM in series [1] (read-out: Inhibition (%) BChE) turned out to be 32.6%.
On to `Fc1ccc2ccc3ocnc3c2c1` [Compound 22], for which the IC50 in series [1] worked out at 128 µM. In addition, the inhibition at 315.8 µM in series [1] (read-out: Inhibition (%) BChE) was 69.9%.
As to `Cc1cccc2c1ccc1ocnc12` [Compound 23], in series [1] (read-out: Inhibition (%) BChE), the inhibition at 297.5 µM amounted to 20.6%.
For the compound `Clc1ncc(/C=C/c2cccs2)s1` [trans-3a, (E)-2-chloro-5-(2-(thiophen-2-yl)vinyl)thiazole], in series [1], the “inhibitory activity toward BChE (in words)” value is “ineffective inhibitors”. For the same compound, in series [1] (read-out: Inhibition (%) BChE), the inhibition at 250 µM came out at 10%.
For `CCC(C)Nc1ncc(/C=C/c2cccs2)s1` (stereo not drawn) [trans-9a, (E)-N-(sec-butyl)-5-(2-(thiophen-2-yl)vinyl)thiazol-2-amine], the inhibition at 100 µM in series [1] (read-out: Inhibition (%) BChE) was determined as 47.7%. Besides, the “solubility (in words)” value in series [3] is given as “limited solubility”.
The like results for `Clc1nc(N2CCCC2)sc1/C=C/c1cccs1` [trans-10a, (E)-4-chloro-2-(pyrrolidin-1-yl)-5-(2-(thiophen-2-yl)vinyl)thiazole] were, in that order, 25.3% and “limited solubility”.
“(E)-2-(2-(2-methylthiazol-5-yl)vinyl)phenol [trans-8a]” registered an IC50 in series [1] of 25.2 µM. In series [1] (250 μM), the “Inhibition (%) BChE” value is reported as 80.5 (250) %.
Turning to “(E)-2-isopropyl-5-(2-(thiophen-2-yl)vinyl)thiazole [trans-2a]”, the “Inhibition (%) BChE” value in series [1] (250 μM) is 45.8 (250) %.
For “(E)-2-methyl-5-(2-(thiophen-2-yl)vinyl)thiazole [trans-1a]”, 181 µM corresponded to half-maximal inhibition in series [1] (IC50). Moreover, the “Inhibition (%) BChE” value in series [1] (500 μM) is recorded as 64.0 (500) %.
On to “(Z)-2-isopropyl-5-(2-(thiophen-2-yl)vinyl)thiazole [cis-2a]”, for which the “Inhibition (%) BChE” value in series [1] (250 μM) is reported as 45.5 (250) %.
In the case of “(Z)-2-methyl-5-(2-(thiophen-2-yl)vinyl)thiazole [cis-1a]”, the “inhibitory activity toward BChE (in words)” value in series [1] is “ineffective inhibitors”. The “Inhibition (%) BChE” value in series [1] (500 μM) is on record as 36.4 (500) %.
